The target in one experiment is T1, NEP (Homo sapiens, UniProt P08473).
T1 construct: purchased R&D Systems (Minneapolis, MN)
As to the kind of experiment: Purified peptidase assay, NEP. The format is biochemical. As to conditions: recombinant purified human enzyme; for prodrugs the active form was tested. As to the method: (§1) Purified recombinant human enzymes were purchased from R&D Systems (Minneapolis, MN). […] Each substrate was diluted to 100 μM in the assay buffer recommended for each enzyme by the supplier. […] To these, 5 μl of diluted enzyme was added, followed by 10 μl of the quenched peptide substrate. The plates were incubated at 37°C until at least 10% substrate turnover or 5 μM product had formed. Fluorescence was measured using a Tecan Safire II (Excitation 320 nm/Emission 420 nm). Each plate included a standard curve of reaction product and positive (no enzyme) and negative (dimethyl sulfoxide vehicle) controls. Dose-response data were plotted and inhibition values (IC50) determined by linear regression analysis using GraphPad Prism (GraphPad Software, La Jolla, CA).

The target of the next experiment is T2, ECE-2 (Homo sapiens, UniProt P0DPD6).
T2 construct: purchased R&D Systems (Minneapolis, MN)
T2 sequence (P0DPD6 1-811): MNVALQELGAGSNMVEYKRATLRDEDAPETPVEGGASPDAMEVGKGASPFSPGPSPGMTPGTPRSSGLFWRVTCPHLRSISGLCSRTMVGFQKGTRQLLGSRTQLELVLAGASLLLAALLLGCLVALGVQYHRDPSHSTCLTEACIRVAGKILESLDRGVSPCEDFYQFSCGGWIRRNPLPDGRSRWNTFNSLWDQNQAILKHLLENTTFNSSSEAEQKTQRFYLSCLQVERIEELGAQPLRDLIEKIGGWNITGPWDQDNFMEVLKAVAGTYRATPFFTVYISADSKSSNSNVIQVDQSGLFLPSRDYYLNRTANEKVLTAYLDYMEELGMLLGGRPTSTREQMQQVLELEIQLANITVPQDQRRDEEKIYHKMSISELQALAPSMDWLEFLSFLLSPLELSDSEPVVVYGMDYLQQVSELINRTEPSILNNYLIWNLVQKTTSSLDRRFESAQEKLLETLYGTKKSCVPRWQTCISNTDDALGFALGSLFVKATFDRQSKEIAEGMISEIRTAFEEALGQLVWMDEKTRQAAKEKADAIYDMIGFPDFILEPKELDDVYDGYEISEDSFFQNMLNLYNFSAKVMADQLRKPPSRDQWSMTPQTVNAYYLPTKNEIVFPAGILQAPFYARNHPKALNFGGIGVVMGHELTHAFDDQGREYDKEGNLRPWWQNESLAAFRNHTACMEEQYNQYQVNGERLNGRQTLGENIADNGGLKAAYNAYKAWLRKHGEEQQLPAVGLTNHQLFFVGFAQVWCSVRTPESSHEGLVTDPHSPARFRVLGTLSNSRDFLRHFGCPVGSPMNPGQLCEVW
The experiment in a line: Purified peptidase assay, ECE-2. The format is biochemical. As to conditions: recombinant purified human enzyme; for prodrugs the active form was tested. As to the method:
as §1

The target in a further experiment is T3, IDE (Homo sapiens, UniProt P14735).
T3 construct: purchased R&D Systems (Minneapolis, MN)
T3 sequence (P14735 1-1019): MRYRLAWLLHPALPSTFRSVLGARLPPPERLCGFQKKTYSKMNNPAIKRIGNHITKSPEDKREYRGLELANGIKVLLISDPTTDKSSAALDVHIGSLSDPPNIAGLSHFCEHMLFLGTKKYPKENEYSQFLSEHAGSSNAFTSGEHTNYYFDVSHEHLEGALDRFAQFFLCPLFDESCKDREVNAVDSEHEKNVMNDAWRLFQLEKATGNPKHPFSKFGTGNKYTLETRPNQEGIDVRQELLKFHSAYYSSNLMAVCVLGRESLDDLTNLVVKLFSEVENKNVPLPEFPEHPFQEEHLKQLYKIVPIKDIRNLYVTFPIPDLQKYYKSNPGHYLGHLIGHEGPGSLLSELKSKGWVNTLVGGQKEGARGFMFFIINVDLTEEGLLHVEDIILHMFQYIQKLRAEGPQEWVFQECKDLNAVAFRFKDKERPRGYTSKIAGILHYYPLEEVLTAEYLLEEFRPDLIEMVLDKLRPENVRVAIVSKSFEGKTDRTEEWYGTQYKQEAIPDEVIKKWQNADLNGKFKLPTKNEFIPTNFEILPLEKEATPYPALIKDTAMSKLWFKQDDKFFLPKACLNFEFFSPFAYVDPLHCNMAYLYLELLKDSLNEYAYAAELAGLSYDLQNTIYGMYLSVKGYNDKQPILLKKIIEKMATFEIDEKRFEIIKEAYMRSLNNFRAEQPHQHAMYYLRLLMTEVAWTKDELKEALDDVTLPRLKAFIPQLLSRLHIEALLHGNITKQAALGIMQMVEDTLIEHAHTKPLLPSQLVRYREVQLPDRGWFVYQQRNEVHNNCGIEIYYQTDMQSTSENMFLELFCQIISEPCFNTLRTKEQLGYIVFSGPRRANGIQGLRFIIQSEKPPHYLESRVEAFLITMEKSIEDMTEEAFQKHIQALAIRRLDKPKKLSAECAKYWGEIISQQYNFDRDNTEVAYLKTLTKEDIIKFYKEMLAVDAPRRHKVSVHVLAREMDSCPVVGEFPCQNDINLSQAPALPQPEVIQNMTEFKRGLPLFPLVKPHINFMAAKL
As to the kind of experiment: Purified peptidase assay, IDE. In kind it is biochemical. As to conditions: recombinant purified human enzyme; for prodrugs the active form was tested. The procedure:
as §1

Experiment [1] relates to castor oil–induced diarrhea. The experiment in a line: Castor oil–induced diarrhea model. In kind it is in vivo, rat. As to conditions: single oral dose 30 minutes before castor oil, fasted rats, vs vehicle (Fig. 1). The procedure:
Experiments were performed with 6-to-7-week-old male Wistar rats obtained from Charles River Laboratories (Wilmington, MA). All animals were housed in Saint Louis University facilities under controlled conditions of temperature, humidity, and a 12-hour light/dark cycle. They were maintained on standard rodent chow with free access to water. Animal care and all procedures were performed in accordance with the National Institutes of Health Guide for the Care and Use of Laboratory Animals and approved by the university’s institutional animal care and use committee.
Animals were weighed and individually housed in metabolic cages containing white paper underneath to collect feces. Test compounds or vehicles were administered by oral gavage (5 ml/kg), and then at indicated times, 10 ml/kg body weight of 100% castor oil was administered by oral gavage to induce diarrhea. Animals had access to food within 5 minutes. Stool weight was recorded starting 15 minutes after castor oil administration and repeated every 15 minutes up to 4 hours. […] After 4 hours, animals were euthanized with CO2, and blood and tissues were collected for analyses.

From article PMC4851326, “Pharmacologic Comparison of Clinical Neutral Endopeptidase Inhibitors in a Rat Model of Acute Secretory Diarrhea” (The Journal of Pharmacology and Experimental Therapeutics, 2016) come the findings set out here.

A word on the IC50: it is the point on the concentration scale where inhibition reaches its midpoint.

T1 sequence (P08473 whole entry): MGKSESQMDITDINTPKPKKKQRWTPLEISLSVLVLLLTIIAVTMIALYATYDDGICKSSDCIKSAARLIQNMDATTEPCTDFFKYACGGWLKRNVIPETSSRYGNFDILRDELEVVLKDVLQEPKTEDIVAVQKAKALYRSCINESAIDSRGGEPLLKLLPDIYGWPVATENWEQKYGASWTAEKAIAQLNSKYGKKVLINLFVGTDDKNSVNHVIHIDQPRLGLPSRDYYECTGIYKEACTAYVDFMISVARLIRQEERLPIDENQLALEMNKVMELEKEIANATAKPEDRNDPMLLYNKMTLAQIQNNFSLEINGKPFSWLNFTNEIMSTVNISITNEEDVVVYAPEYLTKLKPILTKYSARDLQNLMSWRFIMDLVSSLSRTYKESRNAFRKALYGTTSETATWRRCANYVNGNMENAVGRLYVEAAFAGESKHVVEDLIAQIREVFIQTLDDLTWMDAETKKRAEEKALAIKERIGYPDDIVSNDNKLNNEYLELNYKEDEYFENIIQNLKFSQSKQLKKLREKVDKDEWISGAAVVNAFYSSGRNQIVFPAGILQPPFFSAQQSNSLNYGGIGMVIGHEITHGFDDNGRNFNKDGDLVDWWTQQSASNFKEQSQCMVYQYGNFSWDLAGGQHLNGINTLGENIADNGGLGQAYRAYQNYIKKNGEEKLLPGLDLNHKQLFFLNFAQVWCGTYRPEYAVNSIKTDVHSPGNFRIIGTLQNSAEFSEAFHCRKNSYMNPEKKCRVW

`Cc1nc2ccc(CCCNC(=O)C3(C[C@@H](C)C(=O)O)CCCC3)cc2s1` [UK-505,749, (R)-2-methyl-3-(1-((3-(2-methylbenzo[d]thiazol-6-yl)propyl)carbamoyl)cyclopentyl)propanoic acid]: the values for the IC50 on NEP, at ECE-2 and at IDE were 0.004 µM, 15 µM and greater than 100 µM, respectively. Besides, the “Cumulative stool output over 4 hours” value in experiment [1] is “significantly reduced”.
